Test system: HEK293 cells
Assay: Preliminary screening as DNA vectors, GFP transfection of HEK293 cells
Assay type: cell-based
Method in brief: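 Lipid + DOPE liposomes (NaOAc, pH 5.6) complexed w/ 75 ng psin-EGFP-IRES-Puro, 30 min RT; added to 3-5×10^4 HEK293/well, 37° C. Hoechst 0.2 μg/mL at 20-24 h, imaged after further 20-24 h. Efficiency = GFP+ cells / total nuclei.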

[1] = amino lipid/DOPE liposome with 75 ng plasmid DNA (psin-EGFP-IRES-Puro), number of GFP-expressing cells divided by total nuclei (Hoechst)

CCCCCCCCCCCCNc1nc(NCC2CCN(C)CC2)nc(SCCCCCCC)n1 [S7N12 D10]
Absolute DNA transfection efficiency in HEK293 cells [1]: 45.7%

CCCCCCCCCCSc1nc(NCCCCCCC)nc(NCCCN2CCN(C)CC2)n1 [S10N7 D9]
Absolute DNA transfection efficiency in HEK293 cells [1]: 4.5%

CCCCCCCCCCCCCNc1nc(NCCN2CCN(C)CC2)nc(SCCCCCCCCCCCC)n1 [S12N13 D5]
Absolute DNA transfection efficiency in HEK293 cells [1]: 1.5%

CCCCCCCCCCCSc1nc(NCCN2CCCCC2)nc(SCCCCCCC)n1 [S7S11 D4]
Absolute DNA transfection efficiency in HEK293 cells [1]: 14.2%

CCCCCCCCCCCCCCCCNc1nc(NCCN2CCCC2)nc(SCCCCCCCCCCCCCCC)n1 [S15N16 D3]
Absolute DNA transfection efficiency in HEK293 cells [1]: 0.6%

CCCCCCCCCCCCCCCCSc1nc(NCCCCCCCCCCCC)nc(NCCN2CCN(C)CC2)n1 [S16N12 D5]
Absolute DNA transfection efficiency in HEK293 cells [1]: 1.9%

CCCCCCCCSc1nc(NCCN(C)C)nc(SCCCCCCCC)n1 [S8S8 D1]
Absolute DNA transfection efficiency in HEK293 cells [1]: 17.9%

CCCCCCCCSc1nc(NCCN2CCN(C)CC2)nc(SCCCCCCCC)n1 [S8S8 D5]
Absolute DNA transfection efficiency in HEK293 cells [1]: 10.2%

CCCCCCCCCCCCSc1nc(NCCCCCCCCC)nc(NCCN2CCN(C)CC2)n1 [S12N9 D5]
Absolute DNA transfection efficiency in HEK293 cells [1]: 20.2%

CCCCCCCCCCCCCCCCSc1nc(NCCCN(C)C)nc(SCCCCCCC)n1 [S7S16 D6]
Absolute DNA transfection efficiency in HEK293 cells [1]: 9.0%

CCCCCCCCCCCCCCCCCCSc1nc(NCCCCCCCCCCCCCCC)nc(NCCN2CCCC2)n1 [S18N15 D3]
Absolute DNA transfection efficiency in HEK293 cells [1]: 0.2%

CCCCCCCCCCCCNc1nc(NCCN2CCCC2)nc(SCCCCCCCCCCC)n1 [S11N12 D3]
Absolute DNA transfection efficiency in HEK293 cells [1]: 22.8%

CCCCCCCCCCCCSc1nc(NCCCCCC)nc(NCCN2CCCCC2)n1 [S12N6 D4]
Absolute DNA transfection efficiency in HEK293 cells [1]: 0.0%

CCCCCCCCSc1nc(NCCCN2CCOCC2)nc(SCCCCCCC)n1 [S7S8 D8]
Absolute DNA transfection efficiency in HEK293 cells [1]: 3.7%

CCCCCCCCCCCCCCCCSc1nc(NCCCCCCCCCCCC)nc(NCC2CCN(C)CC2)n1 [S16N12 D10]
Absolute DNA transfection efficiency in HEK293 cells [1]: 2.1%

CCCCCCCCCCCCCCCCCCSc1nc(NCCCN(C)C)nc(SCCCCCC)n1 [S6S18 D6]
Absolute DNA transfection efficiency in HEK293 cells [1]: 0.0%

CCCCCCCCSc1nc(NCCCCCCC)nc(NCCN2CCOCC2)n1 [S8N7 D2]
Absolute DNA transfection efficiency in HEK293 cells [1]: 0.4%

CCCCCCCCCCCCCCCCCCSc1nc(NCC2CCN(C)CC2)nc(SCCCCCC)n1 [S6S18 D10]
Absolute DNA transfection efficiency in HEK293 cells [1]: 34.7%

CCCCCCCCCCCCNc1nc(NCCCN(C)C)nc(SCCCCCCC)n1 [S7N12 D6]
Absolute DNA transfection efficiency in HEK293 cells [1]: 54.6%

CCCCCCCCCCCCNc1nc(NCCN(CC)CC)nc(SCCCCCCC)n1 [S7N12 D7]
Absolute DNA transfection efficiency in HEK293 cells [1]: 5.5%

CCCCCCCCCCCCSc1nc(NCCN(CC)CC)nc(SCCCCCCC)n1 [S7S12 D7]
Absolute DNA transfection efficiency in HEK293 cells [1]: 7.1%

CCCCCCCNc1nc(NCCN(C)C)nc(SCCCCCCC)n1 [S7N7 D1]
Absolute DNA transfection efficiency in HEK293 cells [1]: 23.6%

CCCCCCCCCCCCCCCCNc1nc(NCCN2CCCCC2)nc(SCCCCCCC)n1 [S7N16 D4]
Absolute DNA transfection efficiency in HEK293 cells [1]: 2.9%

CCCCCCCCCCCCNc1nc(NCCN(CC)CC)nc(SCCCCCCCC)n1 [S8N12 D7]
Absolute DNA transfection efficiency in HEK293 cells [1]: 9.5%

CCCCCCCCCCCCN(CCCCCCCCCCCC)c1nc(NCCCCCCCCCCC)nc(NCC2CCN(C)CC2)n1 [Compound N112N12D10]
Absolute DNA transfection efficiency in HEK293 cells (HEK293 cells, lipid/DOPE liposome with 75 ng plasmid DNA (psin-EGFP-IRES-Puro), number of cells expressing GFP divided by total number of nuclei (Hoechst)): 0.7%

CCCCCCCCCCCCCCSc1nc(NCCCCCCCC)nc(NCCCN2CCN(C)CC2)n1 [S14N8 D9]
Absolute DNA transfection efficiency in HEK293 cells [1]: 15.7%

CCCCCCCCCCCCCCCCCCNc1nc(NCCN2CCCCC2)nc(SCCCCCCCCCCCC)n1 [S12N18 D4]
Absolute DNA transfection efficiency in HEK293 cells [1]: 0.3%

CCCCCCCCNc1nc(NCCN(C)C)nc(SCCCCCCC)n1 [S7N8 D1]
Absolute DNA transfection efficiency in HEK293 cells [1]: 15.6%

CCCCCCCCCCCNc1nc(NCCN(C)C)nc(SCCCCCCC)n1 [S7N11 D1]
Absolute DNA transfection efficiency in HEK293 cells [1]: 20.3%

CCCCCCCCCCCCCCCSc1nc(NCCCCCCCCCCC)nc(NCCN2CCN(C)CC2)n1 [S15N11 D5]
Absolute DNA transfection efficiency in HEK293 cells [1]: 11.8%

CCCCCCCCCCCCN(CCCCCCCCCCCC)c1nc(NCC2CCN(C)CC2)nc(SCCCCCC)n1 [S6^2N12 D10]
Absolute DNA transfection efficiency in HEK293 cells [1]: 0.0%

CCCCCCCCCSc1nc(NCCN(C)C)nc(SCCCCCCCC)n1 [S8S9 D1]
Absolute DNA transfection efficiency in HEK293 cells [1]: 15.6%

CCCCCCCCCCCNc1nc(NCCN2CCOCC2)nc(SCCCCCCCC)n1 [S8N11 D2]
Absolute DNA transfection efficiency in HEK293 cells [1]: 25.4%

CCCCCCCCCCCCSc1nc(NCCCCCCC)nc(NCCN2CCCCC2)n1 [S12N7 D4]
Absolute DNA transfection efficiency in HEK293 cells [1]: 0.2%

CCCCCCCCCCCCCCCCCCSc1nc(NCCN2CCCCC2)nc(SCCCCCCC)n1 [S7S18 D4]
Absolute DNA transfection efficiency in HEK293 cells [1]: 8.3%

CCCCCCCCCCCCCCCCCCNc1nc(NCCCN2CCOCC2)nc(SCCCCCCCCCCCCCCC)n1 [S15N18 D8]
Absolute DNA transfection efficiency in HEK293 cells [1]: 0.3%

CCCCCCCNc1nc(NCCCN(C)C)nc(SCCCCCC)n1 [S6N7 D6]
Absolute DNA transfection efficiency in HEK293 cells [1]: 0.4%

CCCCCCCCCSc1nc(NCCN(CC)CC)nc(SCCCCCC)n1 [S6S9 D7]
Absolute DNA transfection efficiency in HEK293 cells [1]: 10.2%

CCCCCCNc1nc(NCC2CCN(C)CC2)nc(SCCCCCC)n1 [S6N6 D10]
Absolute DNA transfection efficiency in HEK293 cells [1]: 0.0%

CCCCCCCCCCCCCCSc1nc(NCCCCCCCCC)nc(NCCCN(C)C)n1 [S14N9 D6]
Absolute DNA transfection efficiency in HEK293 cells [1]: 43.9%

CCCCCCCCCCSc1nc(NCCCCCC)nc(NCCCN2CCOCC2)n1 [S10N6 D8]
Absolute DNA transfection efficiency in HEK293 cells [1]: 0.6%

CCCCCCCCCSc1nc(NCCCCCC)nc(NCC2CCN(C)CC2)n1 [S9N6 D10]
Absolute DNA transfection efficiency in HEK293 cells [1]: 9.7%

CCCCCCCCCCCCCNc1nc(NCCN2CCCCC2)nc(SCCCCCCCC)n1 [S8N13 D4]
Absolute DNA transfection efficiency in HEK293 cells [1]: 3.8%

CCCCCCCCCCCCNc1nc(NCCCN2CCOCC2)nc(SCCCCCCCCC)n1 [S9N12 D8]
Absolute DNA transfection efficiency in HEK293 cells [1]: 13.6%

CCCCCCCCCCCCCCSc1nc(NCCCCCCCCCCCCC)nc(NCCN2CCCC2)n1 [S14N13 D3]
Absolute DNA transfection efficiency in HEK293 cells [1]: 9.1%

CCCCCCCCCCCCCCCNc1nc(NCCCN2CCN(C)CC2)nc(SCCCCCCCCCCCC)n1 [S12N15 D9]
Absolute DNA transfection efficiency in HEK293 cells [1]: 0.2%

CCCCCCCCCCSc1nc(NCCCCCCCC)nc(NCCN2CCN(C)CC2)n1 [S10N8 D5]
Absolute DNA transfection efficiency in HEK293 cells [1]: 13.2%

CCCCCCCCCCCCNc1nc(NCCN(C)C)nc(SCCCCCC)n1 [S6N12 D1]
Absolute DNA transfection efficiency in HEK293 cells [1]: 4.7%

CCCCCCCCCCCCCCCCCCNc1nc(NCCN(C)C)nc(SCCCCCCCCCCCCCC)n1 [S14N18 D1]
Absolute DNA transfection efficiency in HEK293 cells [1]: 0.9%

CCCCCCCCCCCCCCCNc1nc(NCCN2CCCCC2)nc(SCCCCCCCCCC)n1 [S10N15 D4]
Absolute DNA transfection efficiency in HEK293 cells [1]: 4.1%

CCCCCCCCCCCCCCCCCCNc1nc(NCCN2CCCCC2)nc(SCCCCCCCCCC)n1 [S10N18 D4]
Absolute DNA transfection efficiency in HEK293 cells [1]: 4.9%

CCCCCCCCCCCCNc1nc(NCC2CCN(C)CC2)nc(SCCCCCC)n1 [S6N12 D10]
Absolute DNA transfection efficiency in HEK293 cells [1]: 21.3%

CCCCCCCCCCCCCCCCNc1nc(NCC2CCN(C)CC2)nc(SCCCCCCCCCCCCCCCC)n1 [S16N16 D10]
Absolute DNA transfection efficiency in HEK293 cells [1]: 0.2%

CCCCCCCCCCCCCCCNc1nc(NCCN(CC)CC)nc(SCCCCCCCCCCCCCC)n1 [S14N15 D7]
Absolute DNA transfection efficiency in HEK293 cells [1]: 1.1%
